From patent US10883143B2, “Compositions and methods for enhancing odorant receptor activity” (DUKE UNIVERSITY, priority 2009, dated 2021)
“Also recorded” adds a separate entry of the source.

How the values were obtained:
[1] = target: T1, OR-S6 coexpressed with M3 (Mus musculus, UniProt Q9ERZ3); experiment: CRE-luciferase reporter assay of OR activation in HEK293T cells; format: cell-based
T1 construct: The open reading frames were amplified using Phusion polymerase; expressed in transfected cells; host or cells: HEK293T
T1 sequence (Q9ERZ3 whole entry): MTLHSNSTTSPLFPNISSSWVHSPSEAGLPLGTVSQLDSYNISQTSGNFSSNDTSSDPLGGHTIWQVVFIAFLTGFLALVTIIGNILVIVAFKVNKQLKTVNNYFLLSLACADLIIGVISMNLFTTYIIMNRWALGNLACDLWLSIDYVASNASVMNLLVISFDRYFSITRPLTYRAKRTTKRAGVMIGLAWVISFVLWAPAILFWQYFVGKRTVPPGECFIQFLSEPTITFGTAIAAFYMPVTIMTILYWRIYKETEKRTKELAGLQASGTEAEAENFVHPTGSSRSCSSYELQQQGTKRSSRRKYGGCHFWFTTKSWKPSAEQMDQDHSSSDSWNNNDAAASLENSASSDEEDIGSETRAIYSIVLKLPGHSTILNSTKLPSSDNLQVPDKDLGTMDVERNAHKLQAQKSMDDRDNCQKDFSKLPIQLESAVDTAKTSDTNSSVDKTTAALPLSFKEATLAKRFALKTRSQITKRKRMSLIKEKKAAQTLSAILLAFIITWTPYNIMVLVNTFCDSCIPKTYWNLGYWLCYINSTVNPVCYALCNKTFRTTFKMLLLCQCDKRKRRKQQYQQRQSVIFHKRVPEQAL
Protocol: (§1) Given that GPCRs that form heteromeric interactions often show functional co-modulation, experiments were conducted to determine if altering M3 activity directly affects the odor-mediated activation of ORs. […] HEK293T cells Hana3A cells were maintained in minimal essential medium (MEM) containing 10% fetal bovine serum (M10) and penicillin-streptomycin and amphotericin solution. Lipofectamine 2000 (Invitrogen) was used for transfection following manufacturer's protocols. […] Briefly, cAMP response element (CRE)-luciferase (Stratagene) was used to measure OR activation. […] Cells were plated on poly-D-lysine-coated 96-well plates (NUNC) 2 days prior to assay. Cells were transfected with ORs in either Hana3A or HEK293T cell lines along with various combinations of RTP1S, Ric-8b, M3, CRE-luciferase, and pRL-SV40. 18-24 hours after transfection, cells were rinsed with 50 μl of CD293 (Invitrogen) and stimulated with 25 μl of odorant solution dissolved in CD293. Cells were incubated for 4 hours at 37° C. and 5% CO2 before luciferase assays. Protocols for measuring luciferase and Renilla luciferase activities were as described by the manufacturer (Promega). Normalized luciferase activity was calculated with the formula (LN−Lmin)/(Lmax−Lmin), where LN is the luminescence of firefly luciferase in response to the odorant, Lmin is the minimum luciferase value on a plate or set of plates, and Lmax is the maximum luciferase value on a plate or set of plates. The data was analyzed with Microsoft Excel and GraphPad Prism 5. Odorants and muscarinic agonists and antagonists were from Sigma except for darifenacin, which was purchased from Santa Cruz.

[2] = system: OR-S6, RTP1S and M3 coexpressed; experiment: Alphascreen cAMP assay in HEK293T cells; format: cell-based, mouse
Protocol: When OR, RTP1S, and M3 were coexpressed, the background level was slightly higher than other conditions.
Alphascreen cAMP assay (Perkin Elmer) was used to measure changes of cAMP. Cells were plated on 96-cell plate (poly D lysine coated, NUNC). 24 hours after transfection, cells were washed in Hanks containing 5 mM HEPES, 0.1% BSA and 500 uM IBMX for 30 minutes. The cells were then stimulated with Hanks containing 5 mM HEPES, 0.1% BSA and 500 uM IBMX and corresponding chemicals. The stimulated cells were incubated for 10 min at room temperature before lysis. The manufacture's protocol was used to measure cAMP.

[3] = system: olfactory sensory neurons (OSNs); experiment: Calcium imaging of acutely dissociated OSNs stimulated with a mix of 10 odorants; format: cell-based, mouse; conditions: paired T-test
[4] = system: OR-S6 coexpressed with M3; experiment: CRE-luciferase reporter assay of OR activation in HEK293T cells; format: cell-based, mouse; conditions: HEK293T coexpressing OR-S6, RTP1S and M3 vs. without M3
Protocol: as §1

M3 = target: T2, M3 (Mus musculus, UniProt Q9ERZ3); experiment: Calcium imaging with HEK293T cells expressing M3; format: cell-based; conditions: carbachol 10^−7M
T2 construct: The open reading frames were amplified using Phusion polymerase; expressed in transfected cells; host or cells: HEK293T
T2 sequence (Q9ERZ3 whole entry): as above
Description: (§2) Since M3 potentiates OR signaling, the possibility that OR activation may also enhance M3 signaling was considered.

OR-S6 = experiment: Calcium imaging with HEK293T cells expressing OR-S6 without M3; format: cell-based, mouse
Protocol: as §2
Calcium imaging with HEK293T cells was performed as described (see, e.g., Y. Ishimaru et al., Proc Natl Acad Sci USA 103, 12569 (Aug. 15, 2006); herein incorporated by reference in its entirety).

[5] = system: OR-S6 coexpressed with M3; experiment: Calcium imaging with HEK293T cells coexpressing OR-S6 and M3; format: cell-based, mouse; conditions: for calcium response to odor alone: OR-S6 and its cofactors (mRTP) coexpressed with M3, 10^−4M nonanedioic acid
Description: as §2

**Q.** For `CN1[C@@H]2CC[C@H]1C[C@@H](OC(=O)C(CO)c1ccccc1)C2` (stereo partly drawn) [atropine], which “OR-S6 activation by nonanedioic acid on co-stimulation with muscarinic ligand” value [1] is on record?
**A.** hindered the potentiation effect of M3

**Q.** How did the “rise in cAMP following OR stimulation, costimulation with carbachol” value ([2]; carbachol 10^−7M, HEK293T transfected with OR-S6, RTP1S and M3) turn out when `C[N+](C)(C)CCOC(N)=O` [carbachol] was run?
**A.** even more dramatic; also recorded: further stimulates production of cAMP

**Q.** `NC(=O)C(c1ccccc1)(c1ccccc1)[C@@H]1CCN(CCc2ccc3c(c2)CCO3)C1` [darifenacin] was tested. Which “odor-mediated calcium responses of OSNs (Fluo-4/Fura-red ratio, Anet)” value ([3]; 10^−7M antagonist with mix of 10 odorants each at 10^−5M) did it give?
**A.** significantly attenuated

**Q.** And the “odor-mediated calcium responses of OSNs (Fluo-4/Fura-red ratio, Anet)” value ([3]; 10^−7M antagonist with mix of 10 odorants each at 10^−5M, listed as darifenecin)?
**A.** attenuated odor-mediated responses of OSNs

**Q.** Which results are given for `C[C@H](CCC(=O)O)C[C@H](C)C[C@H](C)C(=O)/C=C(\O)[C@H](C)C[C@H](C)C/C=C/[C@@H](C)[C@@H](O)[C@@H](C)[C@@H](O)C[C@@H]1CC[C@@](C)([C@H]2CC[C@@](C)([C@@H](C)O)O2)O1` [ionomycin]?
**A.** CRE-luciferase reporter response without OR ligands [4]: reporter gene responses were not seen; CRE-luciferase reporter response without OR ligands ([4]; listed as Ionomycin): had no effect on OR activation

**Q.** Which “cellular cAMP levels following stimulation with OR-S6 ligand” value ([2]; cells coexpressing OR-S6, RTP1S and M3 vs. without M3) does the source give for `O=C(O)CCCCCCCC(=O)O` [nonanedioic acid] here?
**A.** dramatic increase in cellular cAMP levels

**Q.** What about the calcium response (M3) of the same compound?
**A.** No response was observed

**Q.** And the calcium response (OR-S6; HEK293T cells expressing OR-S6 alone)?
**A.** No calcium response was observed

**Q.** What about the calcium response (OR-S6; cells coexpressing OR and Gα15olf (positive control)) of the same compound?
**A.** generate a calcium response

**Q.** What about the calcium response (OR-S6; cells coexpressing OR and Gα15olf (positive control), listed as nonandioic acid) of the same compound?
**A.** increase cellular calcium

**Q.** What about the “calcium response to odor alone” value [5] of the same compound?
**A.** strong calcium response

**Q.** And the “calcium response to odor alone” value ([5]; listed as nonandioic acid)?
**A.** calcium level increases

**Q.** And the calcium response ([5]; cells expressing both S6 and M3 in the absence of RTP)?
**A.** does not elicit a calcium response

**Q.** Which “odor-mediated calcium responses of OSNs (Fluo-4/Fura-red ratio, Anet)” value ([3]; 10^−6M antagonist with mix of 10 odorants each at 10^−5M) does the source give for `O[Si](CCCN1CCCCC1)(c1ccc(F)cc1)C1CCCCC1` (stereo not drawn) [pfHHSiD] here?
**A.** Equivalent results; also recorded: attenuated odor-mediated responses of OSNs
